According to patent publication US4420481A, “Use of piperazine compounds as immunopotentiating agents” (Mitsuitoatsu Chemicals Inc., priority 1980, dated 1983):
Where a name gives a salt, the structure may show the parent alone.

Assays:
[1] = system: Sarcoma 180; test: Test 5: Test of Carcinostatic Effect to Sarcoma 180 by Subcutaneous Administration; type: in vivo, ICR female mice; details: 20 mg/Kg subcutaneous
Experimental: To the control group, a physiological saline solution was similarly administered. […] The diameter D (mm) of the tumor was measured, and the average value and the number N of the living mice were determined to obtain results shown in Table 4.

[2] = system: Sarcoma 180; test: Test 4: Test of Antitumor Effect to Sarcoma 180 by Oral Administration; type: in vivo, ICR female mice; details: for D: average diameter of tumor: 100 mg/Kg oral once a day, 10 days
Experimental: To the control group, a physiological saline solution was similarly administered. The dose of the compound was 100 mg per Kg of the body weight. The diameter D (mm) of the tumor was measured, and the average value and the number N of the living mice were determined to obtain results shown in Table 4.

[3] = system: EL-4 leukemic cells; test: Test 3: In-Vitro Test of Inhibition of Growth of Cancer Cell by Macrophage; type: cell-based; details: for Take-In Ratio of 3H-thymidine (average value): 8 mg/Kg intraperitoneal to mice, macrophages collected after 4 days, with EL-4 cells, control 80.2
Experimental: The results of the test of the action of the effective ingredient of the present invention on the macrophage will now be described with reference to the following Test 3. More specifically, the separated macrophage and EL-4 leukemic cell were mixed and cultured, and ^3 H-thymidine was added to a culture medium and the quantity of ^3 H-thymidine incorporated into the EL-4 cell was determined to examine the activity of the macrophage. When the macrophage is activated by administration of the effective ingredient of the present invention, inhibition of the growth of EL-4 cell, that is, phagocytosis of the cancer cell by the macrophage, is observed. Accordingly, if the take-in amount of ^3 H-thymidine is measured and this amount is reduced, it is confirmed that the macrophage has been activated. […] The dose was 8 mg per Kg of the body weight. To the control group, a physiological saline solution was similarly administered. After passage of 4 days, exuded abdominal cells were collected and deposited on a plastic Petri dish to collect microphages. Then, 1×10^6 of so obtained macrophages and 1×10^5 of EL-4 leukemic cells of C57 BL/6J mouse were mixed with cultured in an RPM1 1640 culture medium to which 10% of bovine embryo serum was added (at 37° C. in the presence of 5% of CO2) for 24 hours. Then, 0.1μ Ci of ^3 H-thymidine was added and culturing was further conducted for 16 hours. Cells were collected on a filter paper from the culture medium and the amount of ^3 H-thymidine taken in was determined by a liquid scintillation counter. […] For comparison, the test was similarly carried out by using Levamisol hydrochloride. Results

[4] = system: delayed hypersensitivity; test: Test 1: Test of Reinforcement of Delayed Hypersensitivity; type: in vivo, ICR male mice; details: mouse
Source text: Various test systems using animals have been proposed for determining the immunopotensiative action. Results of the test of reinforcement of the delayed hypersensitivity, which is a typical test among these tests, will now be described.
This system was used for the test of reinforcement of the delayed hypersensitivity.
One groups of eight ICR male mice, each having a body weight of about 30 g, were used for the test.
Sensitization was effected by coating a 7% solution of picryl chloride in a 4/1 mixture of olive oil and acetone on the shaved abdomen of the mouse.
Simultaneously with sensitization, a solution or suspension of the compound of the present invention in a 0.2% solution of carboxymethyl cellulose in a physiological saline solution was orally administered to the mouse at a dose of 50 mg per Kg of the body weight. To the control group, a 0.2% carboxymethyl cellulose solution in a physiological saline solution was similarly administered.
The delayed hypersensitivity was challenged 7 days after sensitization by gripping the ear of the mouse by a forceps wrapped with a felt impregnated with a 1% solution of picryl chloride in olive oil and coating the ear with the solution. The thickness of the ear was measured before challenging and 24 hours after challenging and the ratio of increase of the thickness (average value of both the ears in eight mice±standard deviation) was obtained as shown in Table 1.
For comparison, the test was similarly carried out by using Levamisol hydrochloride, and the obtained results are shown in Table 1. F.t tests were carried out. The group in which the test result was significant at a level of P<0.05 was marked by *, and the group in which the test result was significant at a level of P<0.01 ws marked by **.

[5] = system: adjuvant arthritis; test: Test 2: Adjuvant Arthritis Test; type: in vivo, SD male rats; details: rat, 5 mg/Kg subcutaneous, 9 times, left hind leg, * P<0.05, ** P<0.01
[6] = 0 weeks, 100 mg/Kg oral, control 6
[7] = 2 weeks, 100 mg/Kg oral, control 6
[8] = 4 weeks, 100 mg/Kg oral, control 6
[9] = 6 weeks, 100 mg/Kg oral, control 6
[10] = 8 weeks, 100 mg/Kg oral, control 5
[11] = 10 weeks, 100 mg/Kg oral, control 1

Row | Compound | N: number of living mice ([1]; 0 weeks, control 6) | N: number of living mice ([1]; 2 weeks, control 6) | D: average diameter of tumor ([1]; 2 weeks, control 10.8) [mm] | N: number of living mice ([1]; 4 weeks, control 6) | D: average diameter of tumor ([1]; 4 weeks, control 16.6) [mm] | N: number of living mice ([1]; 6 weeks, control 6) | D: average diameter of tumor ([1]; 6 weeks, control 20.3) [mm] | N: number of living mice ([1]; 8 weeks, control 4) | D: average diameter of tumor ([1]; 8 weeks, control 31.2) [mm] | N: number of living mice ([1]; 10 weeks, control 1) | D: average diameter of tumor ([1]; 10 weeks, control 40.5) [mm] | Take-In Ratio of 3H-thymidine (average value) [3] [%] | other results
1 | CN1CCN(C(=O)N2CCCCC2)CC1 [drawing 20] | 6 | 6 | 1.6 | 6 | 3.7 | 6 | 5.7 | 6 | 0.8 | 6 | 0 |  | 
2 | CN1CCN(C(=O)N2CCCC2)CC1 [drawing 16] |  |  |  |  |  |  |  |  |  |  |  |  | N: number of living mice [2, 6]: 6; D: average diameter of tumor ([2]; 2 weeks, control 10.6): 7.7 mm; N: number of living mice [2, 7]: 6; D: average diameter of tumor ([2]; 4 weeks, control 15.2): 6.3 mm; N: number of living mice [2, 8]: 6; D: average diameter of tumor ([2]; 6 weeks, control 22.4): 5.5 mm; N: number of living mice [2, 9]: 6; D: average diameter of tumor ([2]; 8 weeks, control 31.5): 4.7 mm; N: number of living mice [2, 10]: 6; D: average diameter of tumor ([2]; 10 weeks, control 37.6): 0 mm; N: number of living mice [2, 11]: 6
3 | O=C(N1CCCCC1)N1CCN(c2ccccc2)CC1 [drawing 15] |  |  |  |  |  |  |  |  |  |  |  | 21.9 | 
4 | CN1CCN(C(=O)N2CCCCC2)CC1 [drawing 8] |  |  |  |  |  |  |  |  |  |  |  |  | Ratio of Increase of Ear Thickness (average value ± Standard Variation) ([4]; 50 mg/Kg oral, 24 hours after challenge, * P<0.05, ** P<0.01, control 29.6 ± 1.9): 43.5 ± 2.8%
5 | CN1CCN(C(=O)N2CCCCC2)CC1 [drawing 11] |  |  |  |  |  |  |  |  |  |  |  |  | Swelling Ratio (average value ± standard variation) ([5]; 15 days, control 84.4 ± 9.0): 49.4 ± 10.3%; Swelling Ratio (average value ± standard variation) ([5]; 18 days, control 103.2 ± 9.7): 62.0 ± 12.5%; Swelling Ratio (average value ± standard variation) ([5]; 21 days, control 107.5 ± 13.3): 68.1 ± 14.0%
6 | O=C(N1CCCCC1)N1CCN(c2ccccc2)CC1 [drawing 21] | 6 | 6 | 2.4 | 6 | 3.9 | 6 | 5.2 | 6 | 0.2 | 6 | 0 |  | 
7 | CN1CCN(C(=O)N2CCCC2)CC1 [drawing 13] |  |  |  |  |  |  |  |  |  |  |  | 25.7 | 
8 | c1ccc([C@H]2CN3CCSC3=N2)cc1 [Levamisole.hydrochloride, reference compound] | 6 | 6 | 7.7 | 6 | 14.8 | 6 | 14.4 | 3 | 30.2 | 2 | 31.6 | 49.0 | Ratio of Increase of Ear Thickness (average value ± Standard Variation) ([4]; in vivo): 35.6 ± 2.4%; carcinostatic activity (in words) [1]: no substantial carcinostatic activity; activation of macrophage / phagocytosis of cancer cells (in words) ([3]; 8 mg/Kg intraperitoneal): hardly exhibits such action; inhibition of take-in of 3H-thymidine by EL-4 leukemic cells (in words) ([3]; 8 mg/Kg intraperitoneal): does not exhibit such action; N: number of living mice [2, 6]: 6; carcinostatic action (in words) ([2]; 100 mg/Kg oral, repeated): no substantial carcinostatic action was observed; D: average diameter of tumor ([2]; 2 weeks, control 10.6): 10.2 mm; N: number of living mice [2, 7]: 6; D: average diameter of tumor ([2]; 4 weeks, control 15.2): 16.2 mm; N: number of living mice [2, 8]: 6; D: average diameter of tumor ([2]; 6 weeks, control 22.4): 20.7 mm; N: number of living mice [2, 9]: 6; D: average diameter of tumor ([2]; 8 weeks, control 31.5): 29.6 mm; N: number of living mice [2, 10]: 6; D: average diameter of tumor ([2]; 10 weeks, control 37.6): 28.1 mm; N: number of living mice [2, 11]: 6; Swelling Ratio (average value ± standard variation) ([5]; 15 days, control 84.4 ± 9.0): 65.2 ± 5.9%; Swelling Ratio (average value ± standard variation) ([5]; 18 days, control 103.2 ± 9.7): 69.3 ± 7.1%; Swelling Ratio (average value ± standard variation) ([5]; 21 days, control 107.5 ± 13.3): 80.7 ± 9.6%
